In patent US20250092065A1, “2-(INDAZOL-5-YL)-6-(PIPERIDIN-4-YL)-1,7-NAPHTHYRIDINE DERIVATIVES AND RELATED COMPOUNDS AS MODULATORS FOR SPLICING NUCLEIC ACIDS AND FOR THE TREATMENT OF PROLIFERATIVE DISEASES” (REMIX THERAPEUTICS INC., priority 2022, published 2025):
Read-outs that look alike come from different tables or passages of the source.

Assays:
HTT mRNA = assay: RT-qPCR splicing assay, HTT mRNA canonical (CJ) and alternative (AJ) junction; format: cell-based, human; settings: Homo sapiens
Outline: (§1)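 Splice switching quantified in compound-treated A673/K562 cells after 24 h exposure (top dose 10 uM, 3-fold steps, ≤0.25% DMSO), using CJ and AJ qPCR assays run at least in duplicate. RQ derived by 2^(−ΔΔCt), then percentage response.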

SMN2 mRNA = assay: RT-qPCR splicing assay, SMN2 mRNA; format: cell-based, human; settings: Homo sapiens, canonical junction qPCR panel, Table 4; read-out: SMN2 IC50 (decrease in CJ mRNA levels)
Outline: as §1

Target C = assay: RT-qPCR canonical junction panel assay, Target C mRNA; format: cell-based; settings: Table 4, read-out: Target C IC50 (decrease in CJ mRNA levels)
Protocol: Compounds described herein were used to modulate RNA transcript abundance in cells. The expression of a target mRNA was measured by detecting the formation of an exon-exon junction in the canonical transcript (CJ). A compound mediated exon-inclusion event was detected by observing an increase in formation of a new junction with an alternative exon (AJ). Real-time qPCR assays were used to detect these splicing switches and interrogate the potency of various compounds towards different target genes. A high-throughput real time quantitative PCR (RT-qPCR) assay was developed to measure these two isoforms of the mRNA (CJ and AJ) for exemplary genes, such as HTT, SMN2, and MYB, together with a control housekeeping gene, GAPDH or GUSB or PPIA, used for normalization. Briefly, the A673 or K562 cell line was treated with various compounds described herein (e.g., compounds of Formula (I)). After treatment, the levels of the HTT, MYB, or SMN2 mRNA targets were determined from each sample of cell lysate by cDNA synthesis followed by qPCR.
The data analysis was performed by first determining the ΔCt vs the housekeeper gene. This ΔCt was then normalized against the DMSO control (ΔΔCt) and converted to RQ (relative quantification) using the 2^(−ΔΔCt) equation. The RQ were then converted to a percentage response by arbitrarily setting an assay window of 3.5 and 4.0 ΔCt for HTT-CJ and MYB-CJ respectively and an assay window of 9 and 3 ΔCt for HTT-AJ and MYB-AJ in 96 well format (50,000 K562 cells/well and 15,000 A673 cells per well) and an assay window of 3 and 4 ΔCt for HTT-CJ and MYB-CJ respectively and an assay window of 5 and 3 ΔCt for HTT-AJ and MYB-AJ respectively in 384 well format (8,000 K562 cells/well example). […] The percentage response was then fitted to the 4 parametric logistic equation to evaluate the concentration dependence of compound treatment. The increase in AJ mRNA is reported as AC50 (compound concentration having 50% response in AJ increase) while the decrease in CJ mRNA levels is reported as IC50 (compound concentration having […] in CJ decrease).
Additional studies were carried out for a larger panel of genes using the protocol provided above. The junction between flanking upstream and downstream exons was used to design canonical junction Qpcr assays. At least one of the forward primer, reverse primer or the CY5-labeled 5′ nuclease probe (with 3′ quencher such as ZEN/Iowa Black FQ) was designed to overlap with the exon junction to capture the CJ Mrna transcript. BLAST was used to confirm the specificity of the probeset and parameters suCH As melting temperature, GC content, amplicon size, and primer dimer formation are considered during their design. Data for the decrease in CJ Mrna levels for four exemplary genes (HTT, SMN2, MYB, and Target C) analyzed in this panel are reported as IC50 (compound concentration having […] in CJ decrease).

K562 cells = assay: Cell Titer Glo 2.0 cell viability (toxicity) assay, K562; settings: 500 cells/well, 72 hours
MYB mRNA = assay: RT-qPCR splicing assay, MYB mRNA canonical (CJ) and alternative (AJ) junction; format: cell-based, human; settings: Homo sapiens
Outline: as §1

[1] = RT-qPCR, HTT alternative junction mRNA increase, read-out: HTT AJ (increase in alternative junction mRNA, AC50)
[2] = RT-qPCR, HTT canonical junction mRNA decrease, read-out: HTT CJ (decrease in canonical junction mRNA, IC50)
[3] = canonical junction qPCR panel, Table 4, read-out: HTT IC50 (decrease in CJ mRNA levels)
[4] = RT-qPCR, MYB alternative junction mRNA increase, read-out: MYB AJ (increase in alternative junction mRNA, AC50)
[5] = RT-qPCR, MYB canonical junction mRNA decrease, read-out: MYB CJ (decrease in canonical junction mRNA, IC50)
[6] = canonical junction qPCR panel, Table 4, read-out: MYB IC50 (decrease in CJ mRNA levels)
[7] = HTT alternative junction mRNA, RT-qPCR, read-out: HTT AJ (increase in AJ mRNA, AC50)
[8] = HTT canonical junction mRNA, RT-qPCR, read-out: HTT CJ (decrease in CJ mRNA levels, IC50)
[9] = MYB alternative junction mRNA, RT-qPCR, read-out: MYB AJ (increase in AJ mRNA, AC50)
[10] = MYB canonical junction mRNA, RT-qPCR, read-out: MYB CJ (decrease in CJ mRNA levels, IC50)

Structure (SMILES)	AC50 (HTT mRNA; [1]) [nM]	IC50 (HTT mRNA; [2]) [nM]	IC50 (HTT mRNA; [3]) [nM]	IC50 (SMN2 mRNA) [nM]	IC50 (Target C) [nM]	Effect of Exemplary Compounds on Cell Viability, K562 (K562 cells)	AC50 (MYB mRNA; [4]) [nM]	IC50 (MYB mRNA; [5]) [nM]	IC50 (MYB mRNA; [6]) [nM]	AC50 (HTT mRNA; [7]) [nM]	IC50 (HTT mRNA; [8]) [nM]	AC50 (MYB mRNA; [9]) [nM]	IC50 (MYB mRNA; [10]) [nM]
C[C@H]1CN(c2cc(F)c3nc(-c4cc(F)c5nn(C)cc5c4)ccc3c2)CCN1 (single isomer, unassigned) [Compound 789]	100 to 1000	100 to 1000	100 to 1000	< 100	100 to 1000	B (B represents 100-1000 nM)	< 100	< 100	< 100				
CCc1nc2cc(O)c(-c3ccc4nc(N5CC[C@@H](NC(C)(C)C)C5)ccc4n3)cc2o1 (single isomer, unassigned) [Compound 808]	1000 to 10000	1000 to 10000	1000 to 10000	100 to 1000	1000 to 10000	C (C represents 1000-9999 nM)	1000 to 10000	1000 to 10000	1000 to 10000				
CCc1nc2cc(O)c(-c3ccc4nc(N5CC[C@H](NC(C)(C)C)C5)ccc4n3)cc2o1 (single isomer, unassigned) [Compound 809]	1000 to 10000	1000 to 10000	1000 to 10000	1000 to 10000	1000 to 10000	C (C represents 1000-9999 nM)	1000 to 10000	1000 to 10000	1000 to 10000				
Cc1c(O)c(-c2ncc3cc(N4C[C@H](C)NC5(CC5)C4)ccc3n2)cc2cn(C)nc12 (single isomer, unassigned) [Compound 810]	1000 to 10000	1000 to 10000	1000 to 10000	< 100	1000 to 10000	B (B represents 100-1000 nM)	100 to 1000	100 to 1000	100 to 1000				
Cc1c(O)c(-c2ncc3cc(N4C[C@@H](C)NC5(CC5)C4)ccc3n2)cc2cn(C)nc12 (single isomer, unassigned) [Compound 811]	1000 to 10000	1000 to 10000	1000 to 10000	< 100	> 10000	B (B represents 100-1000 nM)	< 100	< 100	< 100				
C[C@H]1CN(c2ccc3nc(-c4cc5cn(C)nc5cc4O)ncc3c2)CC2(CC2)N1 (single isomer, unassigned) [Compound 812]	1000 to 10000	1000 to 10000	1000 to 10000	< 100	1000 to 10000	B (B represents 100-1000 nM)	100 to 1000	100 to 1000	100 to 1000				
C[C@@H]1CN(c2ccc3nc(-c4cc5cn(C)nc5cc4O)ncc3c2)CC2(CC2)N1 (single isomer, unassigned) [Compound 813]	> 10000	> 10000	> 10000	< 100	> 10000	B (B represents 100-1000 nM)	100 to 1000	100 to 1000	100 to 1000				
Cc1cn2cc(-c3ncc4cc(N5C[C@H](C)NC6(CC6)C5)ccc4n3)cc(F)c2n1 (single isomer, unassigned) [Compound 814]	1000 to 10000	100 to 1000	100 to 1000	< 100	> 10000	B (B represents 100-1000 nM)	100 to 1000	100 to 1000	100 to 1000				
Cc1cn2cc(-c3ncc4cc(N5C[C@@H](C)NC6(CC6)C5)ccc4n3)cc(F)c2n1 (single isomer, unassigned) [Compound 815]	1000 to 10000	1000 to 10000	1000 to 10000	< 100	> 10000	B (B represents 100-1000 nM)	100 to 1000	100 to 1000	100 to 1000				
Cc1cn2cc(-c3ncc4cc(N5C[C@H](C)N[C@@H](C)C5)ccc4n3)cc(Cl)c2n1 (single isomer, unassigned) [Compound 818]	1000 to 10000	100 to 1000	100 to 1000	< 100	1000 to 10000	A (A represents <100 nM)	< 100	< 100	< 100				
Cc1nc2c(C)c(O)c(-c3ccc4nc(N5CC[C@@H](NC(C)C)C5)ncc4n3)cc2o1 [Cmpd 415]			< 100	< 100	< 100				< 100	< 100	< 100	< 100	< 100
CN(c1ccc2nc(-c3cc4cn(C)nc4cc3O)ccc2n1)C1CC(C)(C)N(C)C(C)(C)C1 [Compound 130]			> 10000	100 to 1000	> 10000				> 10000	> 10000	> 10000	> 10000	> 10000
COc1cc2nc(C3CCNCC3)ccc2nc1-c1cc2c(C)nc(C)cn2n1 [Compound 343, 2-{4,6-dimethylpyrazolo[1,5-a]pyrazin-2-yl}-3-methoxy-6-(piperidin-4-yl)-1,5-naphthyridine]			1000 to 10000	< 100	> 10000				1000 to 10000	1000 to 10000	1000 to 10000	1000 to 10000	1000 to 10000
